In one experiment the target is Factor XIa (Homo sapiens, UniProt P03951). The experiment in a line: Factor XIa inhibition assay (FLINT) utilizing a fluorophore-quencher pair peptide substrate 5Fam-[…]-K5Tamra. Particulars: kinetic (KIN) reads, read-out: FXIa KIN Inh IC50. It is filed as biochemical. The source says: Biological Example 1: Factor XIa Inhibition Assay Utilizing a Fluorophore-Quencher Pair Peptide Substrate A fluorescence intensity (FLINT) based assay was used to monitor inhibition of Factor XIa. The peptide substrate, 5Fam-[…]-K5Tamra (purchased from New England Peptide) was chosen based on the FXI sequence. Conversion of zymogen FXI to its activated form, FXIa, occurs by proteolytic cleavage by […] at two sites, Arg146 and Arg180. The custom peptide used in this assay was based on the Arg146 cleavage site of FXI. The peptide substrate was designed with a fluorophore-quencher pair, where the fluorescence is quenched until FXIa cleaves the 8-mer peptide after the Arg residue.
Sequence of Factor XIa (P03951 388-625 limits assumed): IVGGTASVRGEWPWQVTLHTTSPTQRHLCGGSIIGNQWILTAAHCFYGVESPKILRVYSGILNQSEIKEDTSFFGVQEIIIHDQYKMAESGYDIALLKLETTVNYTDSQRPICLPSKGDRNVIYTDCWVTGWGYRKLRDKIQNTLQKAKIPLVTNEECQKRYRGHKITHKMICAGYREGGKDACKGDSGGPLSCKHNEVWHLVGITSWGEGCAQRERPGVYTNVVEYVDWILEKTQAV
Sequence of Factor XIa (P03951 19-387 partner limits assumed): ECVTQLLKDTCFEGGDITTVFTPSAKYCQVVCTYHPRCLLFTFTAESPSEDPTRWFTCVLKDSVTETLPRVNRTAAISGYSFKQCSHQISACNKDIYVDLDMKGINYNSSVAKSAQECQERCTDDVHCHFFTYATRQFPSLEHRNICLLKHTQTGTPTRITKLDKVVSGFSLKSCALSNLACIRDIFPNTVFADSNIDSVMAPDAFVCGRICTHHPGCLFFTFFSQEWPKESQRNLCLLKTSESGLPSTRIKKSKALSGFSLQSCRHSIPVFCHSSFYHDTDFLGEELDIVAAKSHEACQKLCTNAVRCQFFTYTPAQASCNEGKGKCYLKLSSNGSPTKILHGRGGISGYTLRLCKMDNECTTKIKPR
The Factor XIa FLINT assay was used with the following 5Fam-[…]-K5Tamra assay buffer: 50 mM Tris, pH 7.5, 100 mM NaCl, 5 mM CaCl2, 0.1 mg/mL BSA, 0.03% CHAPS. Assay buffer was prepared by mixing all ingredients fresh. 5Fam-[…]-K5Tamra peptide substrate was first prepared at 10 mM in 100% DMSO, then diluted to 3 mM in 100% DMSO. Assay buffer was then added directly to the 3 mM stock of substrate to prepare the 30 μM 2× working concentration (15 μM final concentration). The 2× Factor XIa stock solution was prepared by diluting 6.562 μM stock in 1× assay buffer for a […].
Test compound(s) were run in an 11-point, 3-fold serial dilution with a final top compound concentration of 100 nM. Final DMSO in assay was 2%. FXIa was preincubated with compound for 30-minutes and then substrate was added to initiate the reaction. The assay was run with kinetic (KIN) reads at 5 min intervals over 30 minutes. […] More specifically, the assay was run as follows: • 100 nL of 0.01 mM test compound was dispensed into black 384-well non-binding Greiner BioOne 784900 plate for 0.1 μM final concentration; • 5 μL of 1× assay buffer was dispensed to column 24 (low control) and 5 μL 2× Factor XIa solution was dispensed to columns 1-23 (column 23 high control); • the plate was centrifuged with a “cover” plate at 500 rpm for 1 min • the plate was pre-incubated for 30 minutes at room temperature with plate covered; • 5 μL of 2×5Fam-[…]-K5Tamra peptide substrate was dispensed into the entire plate, columns 1-24; • the plate was centrifuged with a “cover” plate at 500 rpm for 1 min; • the plate was read monitoring fluorescence intensity on the BMG PHERAStar at room temperature, using fluorescence module 485 nm/520 nm.
(§1) Percent inhibition (IC50) curves were generated per compound tested, and data was analyzed using a 4-parameter logistic fit using GeneData Screener. The relative fluorescence unit (RFU) values were normalized to percent inhibition using the following equation:
% inhibition=((HC−LC)−(compound−LC)/(HC−LC))*100 where LC−low control=mean signal of no Factor XIa or 100% inhibition of Factor XIa; HC−high control=mean signal of Factor XIa+5Fam-[…]-K5Tamra peptide substrate with DMSO only.
(§2) An 11-point dose response curve for the test compound(s) was generated using GENDATA to determine IC50 value based on the following equation:
Y=Bottom+(Top−Bottom)/(1+10^((log IC50−X)*HillSlope)) where Y is the % inhibition in the presence of X inhibitor concentration, Top=high control=mean signal of Factor XIa+5Fam-[…]-K5Tamra peptide substrate with DMSO only; Bottom=low control−mean signal of no Factor XIa or 100% inhibition of Factor XIa; HillSlope−Hill coefficient; and IC50=concentration of compound with 50% inhibition in relation to top/high control.

The target in another experiment is human plasma kallikrein (Homo sapiens, UniProt P03952). The experiment in a line: Kallikrein inhibition assay (FLINT) utilizing a quenched AMC peptide substrate Z-Gly-Pro-Arg-AMC. It is filed as biochemical. Particulars: kinetic (KIN) reads, read-out: Kallikrein KIN Inh IC50.
Sequence of human plasma kallikrein (P03952 391-638 limits assumed): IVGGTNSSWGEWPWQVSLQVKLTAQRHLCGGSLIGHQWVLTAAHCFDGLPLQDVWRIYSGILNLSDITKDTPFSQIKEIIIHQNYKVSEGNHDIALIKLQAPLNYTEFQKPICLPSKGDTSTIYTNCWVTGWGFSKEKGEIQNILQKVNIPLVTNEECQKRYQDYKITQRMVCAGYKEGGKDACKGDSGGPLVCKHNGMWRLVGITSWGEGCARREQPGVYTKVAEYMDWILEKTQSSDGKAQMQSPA
Sequence of human plasma kallikrein (P03952 20-390 partner limits assumed): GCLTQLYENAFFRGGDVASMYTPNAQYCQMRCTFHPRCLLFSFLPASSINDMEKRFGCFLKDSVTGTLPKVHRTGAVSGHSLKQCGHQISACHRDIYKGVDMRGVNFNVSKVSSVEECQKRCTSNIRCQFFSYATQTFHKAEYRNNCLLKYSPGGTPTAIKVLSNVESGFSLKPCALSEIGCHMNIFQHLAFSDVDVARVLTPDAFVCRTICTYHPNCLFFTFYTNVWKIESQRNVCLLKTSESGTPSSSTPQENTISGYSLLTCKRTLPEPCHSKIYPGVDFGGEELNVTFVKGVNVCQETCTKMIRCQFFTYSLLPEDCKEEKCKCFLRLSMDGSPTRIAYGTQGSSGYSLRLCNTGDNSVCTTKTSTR
From the text: Biological Example 2: Kallikrein Inhibition Assay Utilizing a Quenched AMC Peptide Substrate A fluorescence intensity (FLINT) based assay was used to monitor inhibition of human plasma kallikrein. The peptide substrate, Z-Gly-Pro-Arg-AMC (Purchased from Bachem; Catalog #I-1150) was chosen based on its relatively low KM for kallikrein which enables running the assay at lower substrate concentrations to control background fluorescence.
The Kallikrein FLINT assay was used with the following Z-Gly-Pro-Arg-AMC assay buffer: 50 mM Tris, pH 7.5, 100 mM NaCl, 5 mM CaCl2, 0.1 mg/mL BSA, 0.03% CHAPS. Assay buffer was prepared by mixing all ingredients fresh. 2× Z-Gly-Pro-Arg-AMC peptide substrate was prepared by diluting 10 mM stock into 1× assay buffer for a 100 μM working concentration (50 μM final concentration). The 2× kallikrein stock solution was prepared by diluting 14.76 μM stock in 1× assay buffer for a 4 nM working stock solution (2 nM final concentration).
Test compound(s) were run in an 11-point, 3-fold serial dilution with a final top compound concentration of 1 μM. Final DMSO in assay was 2%. Plasma kallikrein was pre-incubated for 30-minute with compound and then 50 μM substrate was added to initiate the reaction. The assay was run with kinetic (KIN) reads at 5 min intervals over 30 minutes. The time course was linear using 2 nM kallikrein greater than 30 minutes. More specifically, the assay was run as follows: • 100 nL of 0.1 mM test compound was dispensed into black 384-well non-binding Greiner BioOne 784900 plate for 1 μM final concentration; • 5 μL of 1× assay buffer was dispensed to columns 24 (low control) and 5 μL 2× human kallikrein enzyme solution was dispensed to columns 1-23 (column 23 high control); • the plate was centrifuged with a “cover” plate at 500 rpm for 1 min • the plate was pre-incubated for 30 minutes at room temperature with plate covered; • 5 μL of 2× Z-Gly-Pro-Arg-AMC peptide substrate was dispensed into the entire plate, columns 1-24; • the plate was centrifuged with a “cover” plate at 500 rpm for 1 min; • the plate was read monitoring fluorescence intensity on the BMG PHERAStar at room temperature, using fluorescence module 340 nm/440 nm.
as §1
% inhibition=((HC−LC)−(compound−LC)/(HC−LC))*100 where LC—low control=mean signal of […] or 100% inhibition of human kallikrein enzyme; HC—high control=mean signal of […]+Z-Gly-Pro-Arg-AMC peptide substrate with DMSO only.
as §2
Y=Bottom+(Top−Bottom)/(1+10^((log IC50−X)*HillSlope)) where Y is the % inhibition in the presence of X inhibitor concentration, Top=high control=mean signal of human kallikrein enzyme+Z-Gly-Pro-Arg-AMC peptide substrate with DMSO only; Bottom=low control−mean signal of no human kallikrein enzyme or 100% inhibition of human kallikrein enzyme; HillSlope−Hill coefficient; and IC50=concentration of compound with 50% inhibition in relation to top/high control.

The structures appear in SMILES notation. Like-named read-outs stand apart in the source and are kept apart here. A value given as a limit tells only on which side of the number the result lay.

A word on the IC50: it is the point on the concentration scale where inhibition reaches its midpoint. Regarding `C[C@H]1C[C@H](c2ncc(-c3ccc(N)nc3Cl)[nH]2)n2c1cc(-c1c(-n3cnnn3)ccc(Cl)c1F)cc2=O` (relative stereo) [Example 37, (1*S,3*R)-3-(5-(6-Amino-2-chloropyridin-3-yl)-1H-imidazol-2-yl)-7-(3-chloro-2-fluoro-6-(1H-tetrazol-1-yl)phenyl)-1-methyl-2,3-dihydroindolizin-5(1H)-one], the IC50 on Factor XIa (values in nM) amounted to 283 nM; on human plasma kallikrein (unit μM), 7.8 µM.

Take `C[C@@H]1C[C@H](c2ncc(-c3ccc(N)nc3F)[nH]2)n2c1cc(-c1c(-n3cnnn3)ccc(Cl)c1F)cc2=O` (stereo in doubt) [Example 56, (1*R,3*R)-3-(5-(6-Amino-2-fluoropyridin-3-yl)-1H-imidazol-2-yl)-7-(3-chloro-2-fluoro-6-(1H-tetrazol-1-yl)phenyl)-1-methyl-2,3-dihydroindolizin-5(1H)-one]: the IC50 at Factor XIa (unit μM) was 1200 nM; on human plasma kallikrein (unit μM) it was above 10 µM.

For the compound `C[C@@H]1C[C@H](c2ncc(-c3ccc(N)nc3F)[nH]2)n2c1nc(-c1c(-n3cnnn3)ccc(Cl)c1F)cc2=O` (stereo in doubt) [Example 138, (6R*,8R*)-6-(5-(6-Amino-2-fluoropyridin-3-yl)-1H-imidazol-2-yl)-2-(3-chloro-2-fluoro-6-(1H-tetrazol-1-yl)phenyl)-8-methyl-7,8-dihydropyrrolo[1,2-a]pyrimidin-4(6H)-one], the values for the IC50 on Factor XIa (values in nM) and at human plasma kallikrein (unit μM) were 258 nM and 4.3 µM, respectively.

For the compound `C[C@H]1C[C@@H](c2ncc(-c3ccc(NC(=O)C4CC4)nc3)[nH]2)n2c1nc(-c1c(-n3cnnn3)ccc(Cl)c1F)cc2=O` (stereo in doubt) [Example 123, N-(5-(2-((6*S,8*S)-2-(3-Chloro-2-fluoro-6-(1H-tetrazol-1-yl)phenyl)-8-methyl-4-oxo-4,6,7,8-tetrahydropyrrolo[1,2-a]pyrimidin-6-yl)-1H-imidazol-5-yl)pyridin-2-yl)cyclopropanecarboxamide], the IC50 at Factor XIa (values in nM) worked out at 3.1 nM; at human plasma kallikrein (values in nM), 0.0175 µM.

For `C[C@H]1C[C@@H](c2ncc(-c3ccnc(F)c3)[nH]2)n2c1cc(-c1c(-n3cnnn3)ccc(Cl)c1F)cc2=O` (stereo in doubt) [Example 44, (1*S,3*S)-7-(3-Chloro-2-fluoro-6-(1H-tetrazol-1-yl)phenyl)-3-(5-(2-fluoropyridin-4-yl)-1H-imidazol-2-yl)-1-methyl-2,3-dihydroindolizin-5(1H)-one], the IC50 was 14.9 nM at Factor XIa (values in nM) and 0.0978 µM on human plasma kallikrein (values in nM).

Turning to `CC1CC(c2ncc(-c3ccnc(CO)c3F)[nH]2)n2c1nc(-c1c(-n3cnnn3)ccc(Cl)c1F)cc2=O` (single isomer, unassigned) [Example 78, (6R*)-2-(3-Chloro-2-fluoro-6-(1H-tetrazol-1-yl)phenyl)-6-(5-(3-fluoro-2-(hydroxymethyl)pyridin-4-yl)-1H-imidazol-2-yl)-8-methyl-7,8-dihydropyrrolo[1,2-a]pyrimidin-4(6H)-one], the figures for the IC50 at Factor XIa (values in nM) and at human plasma kallikrein (values in nM) were above 100 nM and 0.463 µM, respectively.

On to `COC(=O)Nc1ccc(-c2cnc([C@@H]3C[C@H](C)c4nc(-c5c(-n6cnnn6)ccc(Cl)c5F)cc(=O)n43)[nH]2)cc1` (stereo in doubt) [Example 125, Methyl (4-(2-((6*S,8*S)-2-(3-Chloro-2-fluoro-6-(1H-tetrazol-1-yl)phenyl)-8-methyl-4-oxo-4,6,7,8-tetrahydropyrrolo[1,2-a]pyrimidin-6-yl)-1H-imidazol-5-yl)phenyl)carbamate], for which the IC50 on Factor XIa (values in nM) came to 0.5 nM; at human plasma kallikrein (values in nM) it was 0.003 µM.

With `COC(=O)Nc1ccc(-c2cnc([C@@H]3C[C@H](C)c4nc(-c5c(-n6cnnn6)ccc(Cl)c5F)cc(=O)n43)[nH]2)cn1` (stereo in doubt) [Example 116, Methyl (5-(2-((6*S,8*S)-2-(3-Chloro-2-fluoro-6-(1H-tetrazol-1-yl)phenyl)-8-methyl-4-oxo-4,6,7,8-tetrahydropyrrolo[1,2-a]pyrimidin-6-yl)-1H-imidazol-5-yl)pyridin-2-yl)carbamate], the IC50 at Factor XIa (values in nM) was determined as 1.2 nM; at human plasma kallikrein (values in nM), 0.0268 µM.

`C[C@@H]1C[C@@H](c2ncc(-c3ccc4c(=O)cc[nH]c4c3)[nH]2)n2c1nc(-c1c(-n3cnnn3)ccc(Cl)c1F)cc2=O` (relative stereo) [Example 101, 7-(2-((6S,8R)-2-(3-Chloro-2-fluoro-6-(1H-tetrazol-1-yl)phenyl)-8-methyl-4-oxo-4,6,7,8-tetrahydropyrrolo[1,2-a]pyrimidin-6-yl)-1H-imidazol-5-yl)quinolin-4(1H)-one]: the IC50 amounted to 321 nM at Factor XIa (values in nM) and 1.3 µM on human plasma kallikrein (unit μM).

With `Nc1ccc(-c2cnc([C@H]3CC4(CC4)c4nc(-c5c(-n6cnnn6)ccc(Cl)c5F)cc(=O)n43)[nH]2)c(F)n1` [Example 133, (R)-6′-(5-(6-Amino-2-fluoropyridin-3-yl)-1H-imidazol-2-yl)-2′-(3-chloro-2-fluoro-6-(1H-tetrazol-1-yl)phenyl)-6′,7′-dihydro-4′H-spiro[cyclopropane-1,8′-pyrrolo[1,2-a]pyrimidin]-4′-one], the values for the IC50 on Factor XIa (values in nM) and on human plasma kallikrein (unit μM) were 231 nM and 4 µM, respectively.

Regarding `Cc1nc(N)c(F)cc1-c1cnc([C@@H]2C[C@H](C)c3nc(-c4c(-n5cnnn5)ccc(Cl)c4F)cc(=O)n32)[nH]1` (stereo in doubt) [Example 130, (6*S,8*S)-6-(5-(6-Amino-5-fluoro-2-methylpyridin-3-yl)-1H-imidazol-2-yl)-2-(3-chloro-2-fluoro-6-(1H-tetrazol-1-yl)phenyl)-8-methyl-7,8-dihydropyrrolo[1,2-a]pyrimidin-4(6H)-one], the figures for the IC50 on Factor XIa (unit μM) and on human plasma kallikrein (unit μM) were above 10000 nM and above 10 µM, respectively.

The record behind these values is US20230097157A1, “Bicyclic Pyridin-2-one and pyrimidin-4-one Derivatives Useful As a Factor XIa Inhibitors” (Janssen Pharmaceutica NV, priority 2021, published 2023).
